Experimental data reported in patent US8044208B2 (Sanofi-Aventis, priority 2005, dated 2011).

Molecular target: T1, TAFIa (Homo sapiens, UniProt Q96IY4)
T1 construct: purchased American Diagnostica 874TAFIA
T1 sequence (Q96IY4 115-423): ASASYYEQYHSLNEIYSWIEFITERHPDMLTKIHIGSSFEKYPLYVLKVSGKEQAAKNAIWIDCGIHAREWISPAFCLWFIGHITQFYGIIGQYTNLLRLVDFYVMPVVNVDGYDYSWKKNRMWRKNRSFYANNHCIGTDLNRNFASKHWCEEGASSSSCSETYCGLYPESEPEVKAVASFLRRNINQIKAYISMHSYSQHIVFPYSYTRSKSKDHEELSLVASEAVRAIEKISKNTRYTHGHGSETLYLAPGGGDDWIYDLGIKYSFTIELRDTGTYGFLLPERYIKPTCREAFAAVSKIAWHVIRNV
Assay: TAFIa enzyme assay (Actichrome plasma TAFI activity kit)
Format: biochemical
Settings: 15 min preincubation at room temperature, read at 420 nm, duplicate determination
Procedure: The prepared substances were tested for TAFIa inhibition using the Actichrome plasma TAFI activity kit from American Diagnostica (Pr. No. 874). This entailed adding 29 μl of assay buffer (20 mM Hepes, 150 mM NaCl, pH 7.4) and 10 μl of TAFIa (American Diagnostica Pr. No. 874TAFIA; […]) to 1 μl of 5 mM DMSO solution of the substance and incubating in a 96 half-well microtiter plate at room temperature for 15 minutes. The enzymic reaction was started by adding 10 μl of TAFIa developer (prediluted 1:2 with water). The time course of the reaction was followed at 420 nm in a microtiter plate reader (SpectraMax plus 384; Molecular Devices) for 15 minutes. The IC50 values were calculated from the averaged values (duplicate determination) of serial dilutions of the substance with the aid of the Software Grafit 4 (Erithacus Software, UK).

| Compound | IC50 [nM] |
| --- | --- |
| Nc1ccc(CC(C(=O)O)c2cn(Cc3cc(-c4ccc(Cl)s4)on3)cn2)cn1 (centres unmarked) [Example 1, 3-(6-Aminopyridin-3-yl)-2-{1-[5-(5-chlorothiophen-2-yl)isoxazol-3-ylmethyl]-1H-imidazol-4-yl}propionic acid] | 41 |
| Nc1ccc(CC(C(=O)O)c2cn(Cc3cnc(-c4ccc(Cl)s4)s3)cn2)cn1 (centres unmarked) [Example 3, 3-(6-Aminopyridin-3-yl)-2-{1-[2-(5-chlorothiophen-2-yl)thiazol-5-ylmethyl]-1H-imidazol-4-yl}propionic acid] | 326 |
| COc1ccc(-c2cc(Cn3cnc(C(Cc4ccc(N)nc4)C(=O)O)c3)no2)cc1 (centres unmarked) [Example 5, 3-(6-Aminopyridin-3-yl)-2-{1-[5-(4-methoxyphenyl)isoxazol-3-ylmethyl]-1H-imidazol-4-yl}propionic acid] | 104 |
| Nc1ccc(CC(C(=O)O)c2cn(Cc3nnc(-c4ccc(Cl)cc4)s3)cn2)cn1 (centres unmarked) [Example 8, 3-(6-Aminopyridin-3-yl)-2-{1-[5-(4-chlorophenyl)-[1,3,4]thiadiazol-2-ylmethyl]-1H-imidazol-4-yl}propionic acid] | 41 |
| CC(C)(C)c1nnc(Cn2cnc(C(Cc3ccc(N)nc3)C(=O)O)c2)s1 (centres unmarked) [Example 9, 3-(6-Aminopyridin-3-yl)-2-[1-(5-tert-butyl-[1,3,4]thiadiazol-2-ylmethyl)-1H-imidazol-4-yl]propionic acid] | 169 |
| Nc1ccc(CC(C(=O)O)c2cn(Cc3noc(-c4ccc(C(F)(F)F)cc4)n3)cn2)cn1 (centres unmarked) [Example 10, 3-(6-Aminopyridin-3-yl)-2-{1-[5-(4-trifluoromethylphenyl)-[1,2,4]oxadiazol-3-ylmethyl]-1H-imidazol-4-yl}propionic acid] | 258 |

Continued, values first:

| IC50 [nM] | Compound |
| --- | --- |
| 30 | Nc1ccc(CC(C(=O)O)c2cn(Cc3nnc(C4CC4)s3)cn2)cn1 (centres unmarked) [Example 12, 3-(6-Aminopyridin-3-yl)-2-[1-(5-cyclopropyl-[1,3,4]thiadiazol-2-ylmethyl)-1H-imidazol-4-yl]propionic acid] |
| 223 | COc1ccc(-c2nc(Cn3cnc(C(Cc4ccc(N)nc4)C(=O)O)c3)no2)cc1 (centres unmarked) [Example 15] |
| 745 | CC(C)(C)c1ccc(-c2noc(Cn3cnc(C(Cc4ccc(N)nc4)C(=O)O)c3)n2)cc1 (centres unmarked) [Example 17, 3-(6-Aminopyridin-3-yl)-2-{1-[3-(4′-tert-butylphenyl)-[1,2,4]oxadiazol-5-ylmethyl]-1H-imidazol-4-yl}propionic acid] |
| 326 | Cc1nc(-c2cc(Cn3cnc(C(Cc4ccc(N)nc4)C(=O)O)c3)no2)cs1 (centres unmarked) [Example 18, 3-(6-Aminopyridin-3-yl)-2-{1-[5-(2-methylthiazol-4-yl)isoxazol-3-ylmethyl]-1H-imidazol-4-yl}propionic acid] |
| 78 | COc1ccc(-c2nnc(Cn3cnc(C(Cc4ccc(N)nc4)C(=O)O)c3)s2)cc1 (centres unmarked) [Example 22, 3-(6-Aminopyridin-3-yl)-2-{1-[5-(4-methoxyphenyl)-[1,3,4]thiadiazol-2-ylmethyl]-1H-imidazol-4-yl}propionic acid] |
| 3 | CCC(C)c1ccc(-c2cc(Cn3cnc(C(Cc4ccc(N)nc4)C(=O)O)c3)no2)cc1 (centres unmarked) [Example 46, 3-(6-Aminopyridin-3-yl)-2-{1-[5-(4-sec-butylphenyl)isoxazol-3-ylmethyl]-1H-imidazol-4-yl}propionic acid] |
| 4 | Nc1ccc(C[C@H](C(=O)O)c2cn(Cc3cc(-c4ccc(Cl)s4)on3)cn2)cn1 [Example 58, (S)-3-(6-Aminopyridin-3-yl)-2-{1-[5-(5-chlorothiophen-2-yl)isoxazol-3-ylmethyl]-1H-imidazol-4-yl}propionic acid] |
| 26 | Cc1cc(CC(C(=O)O)c2cn(Cc3nnc(C4CC4)s3)cn2)cnc1N (centres unmarked) [Example 61, 3-(6-Amino-5-methylpyridin-3-yl)-2-[1-(5-cyclopropyl-[1,3,4]thiadiazol-2-ylmethyl)-1H-imidazol-4-yl]propionic acid] |
